Tests used:
ERα [1] = biological target: T1, ERα (Homo sapiens, UniProt P03372); experiment: ERα antagonism reporter (luciferase) assay in transfected COS-1 cells; format: cell-based; design: expressed in transfected cells; host or cells: COS-1; conditions: sample concentration 10 μM with 100 nM E2, complete antagonism corresponding to 5.7, 18 hours
T1 sequence (P03372 1-595): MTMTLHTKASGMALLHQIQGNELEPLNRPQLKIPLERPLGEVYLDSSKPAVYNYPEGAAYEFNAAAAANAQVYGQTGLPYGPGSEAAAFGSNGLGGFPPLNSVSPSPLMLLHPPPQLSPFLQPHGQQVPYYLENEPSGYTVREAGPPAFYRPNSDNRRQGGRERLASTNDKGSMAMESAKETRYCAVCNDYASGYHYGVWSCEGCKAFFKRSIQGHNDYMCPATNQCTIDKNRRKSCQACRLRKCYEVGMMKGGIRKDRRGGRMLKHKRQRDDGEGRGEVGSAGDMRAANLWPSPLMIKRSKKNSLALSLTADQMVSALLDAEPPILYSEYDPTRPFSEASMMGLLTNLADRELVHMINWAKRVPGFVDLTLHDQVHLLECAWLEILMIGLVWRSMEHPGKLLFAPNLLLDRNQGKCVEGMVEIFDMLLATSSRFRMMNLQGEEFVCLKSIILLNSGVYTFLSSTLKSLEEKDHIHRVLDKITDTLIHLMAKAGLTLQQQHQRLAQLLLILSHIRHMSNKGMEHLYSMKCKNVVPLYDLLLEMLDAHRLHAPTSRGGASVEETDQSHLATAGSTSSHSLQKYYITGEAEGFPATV
Method: Determination of the Antiestrogen Activity of the Compounds.
One day before transfection, COS-1 cells were seeded into 1 ml of DMEM (Dulbecco's modified Eagle medium, Gibco) with 10% delipidated fetal bovine serum and 0,25% (vol/vol) Penicillin-Streptomysin (Euroclone) at a density of 70×10^3 cells/well. […] After transfection, the cells received treatment with test compounds giving a final concentration of 10 μM for each compound. In the antagonist test the wells were also treated with 10^−7 M estradiol. After 18 hours, the cells were washed, lysed and assayed for luciferase and normalization for β-galactosidase activities and protein concentrations. The cells were washed with 100 μl of cold phosphate buffered saline (PBS), lysed with 35 μl 1× Reporter lysis Buffer (Promega) and frosted (−70° C.) for 30 minutes. Cell lysates were placed in 1.5 ml of propylene centrifuge tubes and centrifuged with 13200 g for 5 min in room temperature. For β-galactosidase assay 10 μl of supernatant from each cell extract was transferred to a 96-well plate (96 well Elisa Microplates, PS, Microcon) and incubated for 10 min at 37° C. with 65 μl of reaction mixture consisting 0.76 gl 100×Mg-buffer, 12.5 μl ONPG (4 mg/ml), and 54.3 μl of sodium-phosphate buffer (pH 7). The reaction was stopped with treatment of 125 μl Na2CO3. […] For the study of protein concentrations 5 μl of the supernatant was transferred to a 96-well plate (96 well Elisa Microplates, PS, Microcon) and mixed with 200 μl of 1× Bio-rad protein assay reagent. The luciferase activities were measured with Thermo Luminoscan Ascent scanner and the protein concentrations and β-galactosidase activities with Thermo Labsystem Multiscan Ex scanner. Also blank and control samples were measured. During the maintenance, transfection, and treatment with tested compounds the cells were incubated in humidified atmosphere with 5% carbon dioxide at 37° C.

ERα [2] = biological target: T1, ERα; experiment: Competitive binding against [6,7-3H(N)]estradiol in COS-1 cells transfected with human ERα; conditions: for IC50: ERα IC50, COS-1 cells, competition against labeled E2, 2 hours at 37° C.; for ERα RBA (relative binding affinity): relative to E2 = 100.0
Method: (§2) Determination of Relative Binding Affinity (RBA).
(§3) Relative binding affinities (RBA) were measured by a competitive assay against [6,7-^3H(N)]estradiol (PerkinElmer) in transsiently transfected COS-1 cells. […] After 2 hours of incubation at 37° C. the medium was removed. The cells were removed from the wells to 150 μl of 1× phosphate buffered saline (PBS), transferred to Eppendorf tubes and centrifuged at 4° C. using 4000 g for 5 min, and then washed twice with 150 μl of PBS. The cell pellets were dissolved to 50 μl of 0.5M NaOH and incubated for 15 min at 56° C., after which the samples were transferred to liquid twinkle tubes and treated with 3 ml of OptiPhase HiSafe 3 twinkle solution (PerkinElmer).

ERβ [3] = biological target: T2, ERβ (Homo sapiens, UniProt Q92731); experiment: Competitive binding against [6,7-3H(N)]estradiol in COS-1 cells transfected with human ERβ; conditions: for IC50: ERβ IC50, COS-1 cells, competition against labeled E2, 2 hours at 37° C.; for ERβ RBA (relative binding affinity): relative to E2 = 100.0
T2 sequence (Q92731 whole entry): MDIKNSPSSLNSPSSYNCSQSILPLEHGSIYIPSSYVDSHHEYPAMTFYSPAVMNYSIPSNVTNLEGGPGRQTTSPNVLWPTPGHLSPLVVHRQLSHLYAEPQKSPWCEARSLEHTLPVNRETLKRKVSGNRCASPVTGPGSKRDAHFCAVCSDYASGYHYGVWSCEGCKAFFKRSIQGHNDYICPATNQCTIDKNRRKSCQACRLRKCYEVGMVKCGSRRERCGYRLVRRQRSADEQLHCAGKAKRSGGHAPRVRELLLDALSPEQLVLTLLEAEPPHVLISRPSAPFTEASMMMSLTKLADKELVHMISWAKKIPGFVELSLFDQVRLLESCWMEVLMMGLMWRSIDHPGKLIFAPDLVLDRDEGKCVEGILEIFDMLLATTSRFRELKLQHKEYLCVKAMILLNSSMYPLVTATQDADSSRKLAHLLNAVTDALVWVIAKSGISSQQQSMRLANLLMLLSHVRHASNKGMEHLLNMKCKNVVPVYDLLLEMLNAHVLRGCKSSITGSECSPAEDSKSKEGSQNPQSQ
Method: as §2, §3

ERα [4] = biological target: T1, ERα; experiment: ERα reporter (luciferase) transactivation assay in transfected HEK293 cells; format: cell-based; design: expressed in transfected cells; host or cells: HEK293; conditions: sample concentration 10 μM, 24 hours, mean of at least three independent transfections
Outline: (§1)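 HEK293 cells in phenol-free DMEM with 5% delipidated FBS were calcium-phosphate transfected for 4 h with ERα or ERβ vector, pERE2TATA-LUC reporter and pCMVβ control. Test compound (10 μM) or vehicle was applied for 24 h, then luciferase and β-galactosidase were measured. Values are means ±SEM of ≥3 transfections.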

ERβ [5] = biological target: T2, ERβ; experiment: ERβ reporter (luciferase) transactivation assay in transfected HEK293 cells; format: cell-based; design: expressed in transfected cells; host or cells: HEK293; conditions: for ERβ receptor activation relative to 10 nM E2 corresponding 100: sample concentration 10 μM, 24 hours, mean of at least three independent transfections
Outline: as §1

Compound | ERα receptor antagonism relative to 100 nM E2 corresponding 100 (ERα [1]) | IC50 (ERα [2]) [nM] | ERα RBA (relative binding affinity) (ERα [2]) [%] | IC50 (ERβ [3]) [nM] | ERβ RBA (relative binding affinity) (ERβ [3]) [%] | ERα receptor activation relative to 10 nM E2 corresponding 100 (ERα [4]) [%] | ERβ receptor activation relative to 10 nM E2 corresponding 100 (ERβ [5]) [%] | melting point [°C] | activation at 10 µM (ERβ [5]; HEK293, 24 h, read-out: ERβ receptor activation relative to 10 nM E2 corresponding 100, sample concentration 10 μM, mean of at least three independent transfections) [%]
Oc1ccc(CCCC2=NOC(Cc3ccccc3)C2)cc1 (stereo not shown) [99ab, 5-Benzyl-3-[3-(4-hydroxy-phenyl)-propyl]-4,5-dihydro-isoxazole] | 132.9 | – | – | – | – | – | – | – | –
CC1(c2ccccc2)CC(CCCc2ccc(O)cc2)=NO1 (single isomer, unassigned) [90a, 3-[3-(4-Hydroxy-phenyl)-propyl]-5-methyl-5-phenyl-4,5-dihydro-isoxazole] | – | 250 | 0.784 | 3100 | 0.063 | 88.8 | 64.8 | – | –
CC1(c2ccccc2)CC(CCc2ccccc2O)=NO1 (single isomer, unassigned) [85b, 3-[2-(2-Hydroxy-phenyl)-ethyl]-5-methyl-5-phenyl-4,5-dihydro-isoxazole] | 57.9 | – | – | – | – | 21.7 | 30.0 | – | –
CC1(c2ccccc2)CC(CCc2ccccc2O)=NO1 (single isomer, unassigned) [85a, 3-[2-(2-Hydroxy-phenyl)-ethyl]-5-methyl-5-phenyl-4,5-dihydro-isoxazole] | 95.6 | – | – | – | – | 11.8 | −0.4 | – | –
c1ccc(CCCC2=NOC(c3ccccc3)C2)cc1 (single isomer, unassigned) [113a, 5-Phenyl-3-(3-phenyl-propyl)-4,5-dihydro-isoxazole] | – | 1900 | 0.103 | – | – | 44.3 | −3.1 | – | –
Oc1ccc(CC2=NOC(c3ccccc3)C2)cc1 (single isomer, unassigned) [84b, 3-(4-Hydroxy-benzyl)-5-phenyl-4,5-dihydro-isoxazole] | 64.5 | – | – | – | – | 7.6 | 18.5 | – | –
COc1ccc(C2=NOC(Cc3ccc(OC)c(OC)c3)C2)cc1 (stereo not shown) [16ab, 5-(3,4-Dimethoxybenzyl)-3-(4-methoxyphenyl)-4,5-dihydroisoxazole] | – | – | – | – | – | −4.0 | – | 88.1 to 89.2 | 7.3
Oc1ccc(CCC2=NOC(Cc3ccccc3)C2)cc1 (single isomer, unassigned) [93b, 5-Benzyl-3-[2-(4-hydroxy-phenyl)-ethyl]-4,5-dihydro-isoxazole] | – | 2150 | 0.091 | 1090 | 0.180 | 24.3 | 41.5 | – | –
Oc1ccc(CCCC2=NOC(c3ccccc3)C2)cc1 (single isomer, unassigned) [88b, 3-[3-(4-Hydroxy-phenyl)-propyl]-5-phenyl-4,5-dihydroisoxazole] | – | 30 | 6.533 | 1250 | 0.157 | 65.0 | 77.1 | – | –
CC1(c2ccccc2)CC(CCCc2ccc(O)cc2)=NO1 (single isomer, unassigned) [90b, 3-[3-(4-Hydroxy-phenyl)-propyl]-5-methyl-5-phenyl-4,5-dihydro-isoxazole] | – | 23000 | 0.009 | 20000 | 0.010 | 86.5 | 30.1 | – | –
COc1ccccc1C1=NOC(Cc2ccccc2)C1 (stereo not shown) [compound 6, 5-Benzyl-3-(2-methoxyphenyl)-4,5-dihydroisoxazole] | – | – | – | – | – | – | – | 81 to 82 | –
Clc1ccc(C2=NOC(Cc3ccccc3)C2)cc1 (stereo not shown) [compound 33, 5-Benzyl-3-(4-Chlorophenyl)-4,5-dihydroisoxazole] | – | – | – | – | – | – | – | 128.2 to 129.4 | –
COc1ccc(CC2CC(c3ccc(OC)cc3)=NO2)cc1 (stereo not shown) [compound 15, 5-(4-Methoxybenzyl)-3-(4-methoxyphenyl)-4,5-dihydroisoxazole] | – | – | – | – | – | – | – | 135.8 to 137.7 | –
Clc1cccc(Cl)c1C1=NOC(Cc2ccccc2)C1 (stereo not shown) [compound 42, 5-Benzyl-3-(2,6-dichlorophenyl)-4,5-dihydroisoxazole] | – | – | – | – | – | – | – | 90 to 90.5 | –
Oc1ccc(CCCC2=NOC(Cc3ccc(O)cc3)C2)cc1 (stereo not shown) [101ab, 5-(4-Hydroxy-benzyl)-3-[3-(4-hydroxy-phenyl)-propyl]-4,5-dihydro-isoxazole] | 39.4 | – | – | – | – | – | – | – | –
Clc1ccc(C2=NOC(CCc3ccccc3)C2)cc1 (stereo not shown) [compound 63, 3-(4-Chloro-phenyl)-5-phenethyl-4,5-dihydro-isoxazole] | – | – | – | – | – | – | – | 74.8 to 75.7 | –
COc1ccc(C2=NOC(Cc3ccccc3)C2)cc1 (stereo not shown) [compound 12, 5-Benzyl-3-(4-methoxyphenyl)-4,5-dihydroisoxazole] | – | – | – | – | – | – | – | 99.6 to 100.3 | –
Oc1ccc(CCC2=NOC(Cc3ccccc3)C2)cc1 (single isomer, unassigned) [93a, 5-Benzyl-3-[2-(4-hydroxy-phenyl)-ethyl]-4,5-dihydro-isoxazole] | – | 215 | 0.912 | 1250 | 0.157 | 171.1 | 143.1 | – | –
c1ccc(CCCC2=NOC(c3ccccc3)C2)cc1 (single isomer, unassigned) [113b, 5-Phenyl-3-(3-phenyl-propyl)-4,5-dihydro-isoxazole] | – | 5600 | 0.035 | 5400 | 0.036 | 11.5 | 17.2 | – | –
Oc1ccc(CCCC2=NOC(c3ccccc3)C2)cc1 (single isomer, unassigned) [88a, 3-[3-(4-Hydroxy-phenyl)-propyl]-5-phenyl-4,5-dihydroisoxazole] | – | 12.5 | 15.68 | 2050 | 0.096 | 103.6 | 44.7 | – | –
COc1ccc(CC2CC(c3ccc(Cl)cc3)=NO2)cc1 (stereo not shown) [compound 38, 3-(4-Chlorophenyl)-5-(4-methoxybenzyl)-4,5-dihydroisoxazole] | – | – | – | – | – | – | – | 126.2 to 127.3 | –

From patent US20100267784A1, “NOVEL 4,5-DIHYDROISOXAZOLES WITH ESTROGENIC ACTIVITY” (priority 2007, published 2010)
